{
  "source": "ChEMBL document CHEMBL5316313",
  "about": "“Discovery of Novel 3-Phenylpiperidine Derivatives Targeting the β-Catenin/B-Cell Lymphoma 9 Interaction as a Single Agent and in Combination with the Anti-PD-1 Antibody for the Treatment of Colorectal Cancer” (J Med Chem, 2023)",
  "biological_target": "T1, beta-catenin-B-cell lymphoma 9 protein complex (Homo sapiens, UniProt P35222)",
  "T1 sequence (P35222 whole entry)": "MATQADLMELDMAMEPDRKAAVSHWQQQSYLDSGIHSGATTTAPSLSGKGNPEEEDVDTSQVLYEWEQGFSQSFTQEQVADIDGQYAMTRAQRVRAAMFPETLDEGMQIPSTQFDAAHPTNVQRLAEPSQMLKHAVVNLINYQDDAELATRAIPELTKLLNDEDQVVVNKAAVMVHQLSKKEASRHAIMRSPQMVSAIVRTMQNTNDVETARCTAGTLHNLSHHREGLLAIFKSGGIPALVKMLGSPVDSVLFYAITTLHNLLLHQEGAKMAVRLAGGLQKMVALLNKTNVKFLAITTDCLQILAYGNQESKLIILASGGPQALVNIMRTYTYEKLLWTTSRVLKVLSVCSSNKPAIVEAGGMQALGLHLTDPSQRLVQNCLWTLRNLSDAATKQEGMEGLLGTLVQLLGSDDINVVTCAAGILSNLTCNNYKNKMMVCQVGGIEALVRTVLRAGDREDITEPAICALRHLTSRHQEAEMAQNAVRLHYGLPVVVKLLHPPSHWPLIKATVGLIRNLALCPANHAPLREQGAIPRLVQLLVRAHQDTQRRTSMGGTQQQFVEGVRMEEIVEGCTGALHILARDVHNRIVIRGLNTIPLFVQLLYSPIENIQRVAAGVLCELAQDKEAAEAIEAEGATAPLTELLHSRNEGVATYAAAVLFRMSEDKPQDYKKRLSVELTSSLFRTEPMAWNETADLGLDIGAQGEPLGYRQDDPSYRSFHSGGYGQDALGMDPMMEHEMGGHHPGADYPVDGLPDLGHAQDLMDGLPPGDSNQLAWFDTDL",
  "T1 sequence (O00512 whole entry)": "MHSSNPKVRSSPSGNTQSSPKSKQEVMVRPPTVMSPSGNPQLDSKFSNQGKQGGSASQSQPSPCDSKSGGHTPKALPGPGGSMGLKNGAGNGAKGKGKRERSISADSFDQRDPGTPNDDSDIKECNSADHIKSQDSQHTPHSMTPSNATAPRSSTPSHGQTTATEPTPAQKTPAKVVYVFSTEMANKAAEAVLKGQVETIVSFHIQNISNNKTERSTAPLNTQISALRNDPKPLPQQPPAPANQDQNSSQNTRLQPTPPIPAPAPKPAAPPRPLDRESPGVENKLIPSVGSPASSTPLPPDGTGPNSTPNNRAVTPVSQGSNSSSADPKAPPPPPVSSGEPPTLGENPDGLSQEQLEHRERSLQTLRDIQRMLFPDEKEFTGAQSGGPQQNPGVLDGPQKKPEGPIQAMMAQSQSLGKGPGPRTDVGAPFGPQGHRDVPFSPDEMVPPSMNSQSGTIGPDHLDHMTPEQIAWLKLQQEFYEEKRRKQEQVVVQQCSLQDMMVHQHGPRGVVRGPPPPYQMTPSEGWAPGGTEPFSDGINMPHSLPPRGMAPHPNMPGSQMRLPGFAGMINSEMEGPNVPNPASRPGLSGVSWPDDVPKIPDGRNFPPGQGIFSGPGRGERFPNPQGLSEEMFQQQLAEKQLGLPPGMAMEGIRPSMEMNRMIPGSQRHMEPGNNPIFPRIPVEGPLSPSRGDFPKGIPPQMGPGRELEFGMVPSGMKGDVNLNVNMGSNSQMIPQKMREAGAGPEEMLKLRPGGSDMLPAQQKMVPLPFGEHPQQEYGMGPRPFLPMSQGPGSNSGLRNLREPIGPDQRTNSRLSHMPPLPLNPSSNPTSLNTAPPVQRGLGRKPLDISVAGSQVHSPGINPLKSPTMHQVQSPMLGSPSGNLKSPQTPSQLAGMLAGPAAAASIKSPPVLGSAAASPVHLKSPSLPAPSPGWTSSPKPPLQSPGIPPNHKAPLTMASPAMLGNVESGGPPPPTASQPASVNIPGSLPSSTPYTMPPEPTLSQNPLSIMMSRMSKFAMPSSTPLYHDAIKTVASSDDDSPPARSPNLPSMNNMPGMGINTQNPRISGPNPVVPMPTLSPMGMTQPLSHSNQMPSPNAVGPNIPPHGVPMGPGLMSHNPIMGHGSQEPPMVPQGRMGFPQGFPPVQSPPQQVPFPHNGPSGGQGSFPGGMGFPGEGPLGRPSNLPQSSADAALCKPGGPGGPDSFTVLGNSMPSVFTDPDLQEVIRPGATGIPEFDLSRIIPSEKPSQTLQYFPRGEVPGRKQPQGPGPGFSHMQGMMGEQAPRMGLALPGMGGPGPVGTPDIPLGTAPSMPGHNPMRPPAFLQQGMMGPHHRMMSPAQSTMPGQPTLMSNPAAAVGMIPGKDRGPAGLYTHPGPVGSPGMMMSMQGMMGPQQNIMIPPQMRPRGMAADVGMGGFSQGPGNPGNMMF",
  "assay": "Inhibition of beta-catenin (unknown origin)/BCL9 (unknown origin) protein-protein interaction assessed as inhibition constant by AlphaScreen assay",
  "assay_type": "protein-complex assay",
  "note": "pKi: −log10 of the molar value.",
  "data": [
    {"smiles": "O=C(Nc1ccc(O[C@H]2CCNC2)c(-c2cccc(-c3nn[nH]n3)c2)c1)c1ccc(O[C@H]2CCNC2)c(-c2ccc(F)c(F)c2)c1", "values": [
      {"measurement": "pKi", "result": 6.33}
    ]}
  ]
}
